SMILES strings stand for the structures. A value given as a limit tells only on which side of the number the result lay.

This test deals with 2-amino-3-carboxymuconate-6-semialdehyde decarboxylase (Homo sapiens, UniProt Q8TDX5). As to the kind of experiment: Inhibition of human recombinant ACMSD1 expressed in Escherichia coli BL21 (DE3) cells assessed as reduction in conversion of 3-OH-anthranilic acid into ACMS by spectrophotometry.
Sequence of 2-amino-3-carboxymuconate-6-semialdehyde decarboxylase (Q8TDX5 whole entry): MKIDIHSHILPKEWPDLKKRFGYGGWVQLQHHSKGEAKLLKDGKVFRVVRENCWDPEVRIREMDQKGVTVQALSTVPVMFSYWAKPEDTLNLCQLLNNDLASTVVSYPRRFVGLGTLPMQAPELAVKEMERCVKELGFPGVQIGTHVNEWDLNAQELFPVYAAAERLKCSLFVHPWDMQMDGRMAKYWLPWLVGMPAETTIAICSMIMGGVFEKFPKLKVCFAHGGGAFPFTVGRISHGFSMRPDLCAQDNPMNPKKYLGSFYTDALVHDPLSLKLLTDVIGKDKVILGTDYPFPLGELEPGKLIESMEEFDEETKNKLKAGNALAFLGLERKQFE
In general, IC50 refers to the concentration that gives 50% inhibition. Turning to `CCOc1cccc(/C=C/c2[nH]c(=S)[nH]c(=O)c2C#N)c1OCC(=O)O`, the IC50 is more than 100 nM. The value for `N#Cc1c(/C=C/c2cccc(O)c2O)[nH]c(=S)[nH]c1=O` was more than 100 nM; that for `COc1cccc(/C=C/c2[nH]c(=S)[nH]c(=O)c2C#N)c1OCC(=O)O` was more than 100 nM; that for `COc1cccc(/C=C/c2[nH]c(=O)[nH]c(=O)c2[N+](=O)[O-])c1OCC(=O)O` was more than 100 nM. For the compound `N#Cc1c(/C=C/c2ccccc2-c2cc(F)c(O)c(F)c2)[nH]c(=S)[nH]c1=O`, the IC50 is more than 100 nM.
